Entries after “also recorded” stand apart in the source; their conditions may differ. Like-named read-outs stand apart in the source and are kept apart here.
How the values were obtained:
[1] = test system: H508 human colon cancer cells; test: H508 colon cancer cell proliferation assay (sulforhodamine B colorimetric assay); format: cell-based; settings: for effect on EGF-induced H508 cell proliferation: EGF 1 ng/ml; for effect on acetylcholine-induced H508 cell proliferation: acetylcholine 300 μM
Description: H508 colon cancer cell culture. H508 human colon cancer cells were grown in RPMI 1640 (ATCC) supplemented with 10% fetal bovine serum (FBS) (Biowhittaker). Adherent cultures were passaged weekly at subconfluence after trypsinization. Cultures were maintained in incubators at 37° C. in an atmosphere of 5% CO2 and 95% air.
H508 colon cancer cell proliferation assay. Cell proliferation was determined using the sulforhodamine B (SRB) colorimetric assay (Skehan et al., 1990). Cells were seeded in 96-well plates (Corning Glass Works, Corning, N.Y.) at approx. 10% confluence and allowed to attach for 24 h. Growth medium was removed and fresh medium without FBS and containing the indicated concentration of test agent was added. Cells were incubated for the indicated periods of time at 37° C. in an atmosphere of 5% CO2 and 95% air. After incubation, cells were treated for 30 min with 0.4% (w/v) SRB dissolved in 1% acetic acid. Protein-bound dye was extracted with unbuffered 10 mM Tris base. Absorbance was measured at 560 nm using a computer-interfaced, 96-well microtiter plate reader.
c-di-GMP inhibits proliferation of human colon cancer cells. The potential therapeutic actions of c-di-GMP were examined on basal and growth factor-stimulated proliferation of cells derived from a moderately differentiated human cecal adenocarcinoma (H508 cells) that express M3 muscarinic (M3R) and epidermal growth factor (EGF) receptors (EGFR) (Cheng et al., 2003). Cell proliferation was determined using the validated sulforhodamine B (SRB) calorimetric assay (Skehan et al., 1990). H508 cells were incubated in the absence or presence of a growth stimulant, acetylcholine (300 μM) and EGF (1 ng/ml) alone or with increasing concentrations of c-di-GMP (0.5-50 μM). After a 5-day incubation, the highest concentration of c-di-GMP tested, 50 μM, reduced basal H508 cell proliferation by approx. 15% (FIG. 1; p<0.05 compared to control, Student's unpaired t-test).

[2] = test system: NRK 52E cells (normal rat kidney cells); test: Cell proliferation assay on normal rat kidney cells (Alamar blue, 24-96 h); format: cell-based
Description: Cell proliferation assay on normal rat kidney cells. To assess potential effects on cell proliferation, the Alamar blue assay was performed using NRK 52E cells. Cells were harvested as described for the toxicity assay and seeded in 96-well tissue culture plates at a density of about 3×10^3 cells/well and evaluated over a 96-h time frame. Cells were allowed to attach for 3 h in the basal, serum-containing DMEM medium. After attachment, the media was aspirated and replaced with test solutions according to the design described for the toxicity assay with the addition of the Alamar blue dye to each solution (as 10% vol/vol). The reduction of Alamar blue dye was measured in a fluorimetric plate reader (Cytofluor) at 24, 48, 72 and 96 h. Morphological observation was also performed to ensure that the cell patterns matched the fluorescence data. Data were collected as raw fluorescence units and expressed as a percentage of the solvent control using the average values from all 8 wells used for each group (mean fluorescence test/mean fluorescence control×100=% control fluorescence) at each time period. As a further check to ensure that Alamar blue was not itself exerting some growth or inhibitory effects the experiments were also performed by plating cells at the lower density with exposures for 72 h without Alamar blue in the media. After the 72-h growth period, the media was aspirated and fresh DMEM containing Alamar blue (10% vol/vol) was added to all wells. Cells were further incubated in the Alamar blue solution for 6 h and fluorescence measured and data collected and expressed as described.

[3] = test system: SH-SY5Y human neuroblastoma cells; test: cells; format: cell-based
Description: Toxicity assays in human neuroblastoma cells. SH-SY5Y human neuroblastoma cells were cultured in DMEM/Ham's F-12 (1:1) media, supplemented with 10% FBS, penicillin (100 IU/ml), streptomycin (100 μg/ml), and L-glutamine (2 mM); the cell culture medium was replaced every two days. Cultures were maintained at 37° C. in 95% air-5% CO2 in a humidified incubator. A standard curve established the linear range for the assay of approximately 1000-7000 cells/well for a 96 well plate. All data reported were within this range. MTS assay concentration-response curves were performed as follows: 1800 cells/well were plated in 96 well plates. After 30 h, media was changed to include no toxicant (control) or toxicant at varying concentrations. The cells were then exposed for 48 h, the media was removed, and 100 μl minimum essential medium without phenol red and 20 μl MTS reagent were added. Cells were incubated, and 2 h later, plates were measured at 490 nm on an ELx 808 microplate reader (Bio-Tek Instruments, Winooski, Vt.). EC50 values were determined via nonlinear regression using Prism software (GraphPad, San Diego, Calif.).
Cytotoxicity tests in human neuroblastoma cells. The 3-(4,5-dimethylthiazol-2-yl)-5-(3-carboxymethoxyphenyl)-2-(4-sulfophenyl)-2H-tetrazolium (MTS) assay is a quantitative colorimetric assay for measurement of cellular proliferation, cytotoxicity and viability. MTS is converted to a formazan product only in living cells. MTS is similar to 3-(4,5-dimethylthiazol-2-yl)-2,5-diphenyltetrazolium bromide (MTT), which is widely used in cytotoxicity assays. The difference is that the formazan product for the MTS reagent is soluble in media while the MTT reagent is not.
To study the cytotoxicity of c-di-GMP in SH-SY5Y human neuroblastoma cells, increasing concentrations (0.0001-1000 μM) were added to the culture medium and cell viability was assessed by the MTS assay. […] Up to 100 μM, there was no effect on cell viability; at greater concentrations, a sharp decline in cell viability was observed.

[4] = test system: p44/42 (ERK1/2) mitogen-activated protein kinase (MAPK) cascade; test: Acetylcholine- and EGF-induced activation of p44/42 MAPK signaling in H508 cells; format: cell-based, human
[5] = test system: H508 human colon cancer cells; test: H508 colon cancer cell proliferation assay (sulforhodamine B colorimetric assay); format: cell-based; settings: 50 μM
CD1 mice = test: Lethality in CD1 mice; settings: 50 μl of 200 μM c-di-GMP, after 24 h
[6] = increasing concentrations 0.5-50 μM, 5 days

Nc1nc(=O)c2ncn([C@@H]3OC4COP(=O)(O)O[C@H]5[C@@H](O)[C@H](n6cnc7c(=O)nc(N)[nH]c76)O[C@@H]5COP(=O)(O)OC4C3O)c2[nH]1 (stereo partly drawn) [c-di-GMP, Bis(3′-->5′)-cyclic diguanylic acid]
effect on basal H508 cell proliferation ([1]; 50 μM, 5 days incubation): inhibited | effect on EGF-induced H508 cell proliferation ([1]; 50 μM, 5 days): reduced to basal levels | effect on acetylcholine-induced H508 cell proliferation ([1]; 50 μM, 5 days): reduced to basal levels | reduction of basal H508 cell proliferation ([1]; 50 μM, basal (no stimulant), 5-day incubation): approx. 15% | effect on EGF-induced H508 cell proliferation [1, 6]: inhibit; also recorded: progressively inhibited | effect on acetylcholine-induced H508 cell proliferation [1, 6]: inhibit; also recorded: progressively inhibited | effect on basal H508 cell proliferation ([1]; increasing concentrations, 5 days (FIG. 1)): inhibit | effect on basal H508 cell proliferation ([1]; lower concentrations (below 50 μM), 5 days): did not significantly alter basal proliferation; also recorded: did not alter basal cell proliferation | fluorescence (% of control), NRK cell proliferation ([2]; 100 μM, 48 h): 75 % of control fluorescence | fluorescence (% of control), NRK cell proliferation ([2]; 100 μM, 72 h): 87 % of control fluorescence | fluorescence (% of control), NRK cell proliferation ([2]; 100 μM, 96 h): 94 % control fluorescence | fluorescence (% of control), NRK cell proliferation ([2]; 200 μM, 96 h): 85 % of control | NRK cell proliferation ([2]; 200 μM, up to 96 h): retardation of cell proliferation that was much less pronounced than the 400-μM dose | NRK cell proliferation ([2]; 400 μM, 96-h period of exposure): little growth over the 96-h period of exposure | NRK cell proliferation ([2]; 5, 25 or 50 μM (data not shown)): not altered | cytotoxicity on human neuroblastoma cells [3]: no cytotoxicity | EC50 ([3]; Homo sapiens, SH-SY5Y cells, 48 hr exposure, MTS assay, read-out: EC50 for decrease of cell viability): 350 µM | concentration with no effect on cell viability ([3]; human, 48 h): Up to 100 μM | effect on EGF-induced activation (phosphorylation) of p44/42 MAPK [4]: did not alter | effect on acetylcholine-induced activation (phosphorylation) of p44/42 MAPK [4]: did not alter | effect on EGF-induced activation (phosphorylation) of p44/42 MAPK ([4]; listed as cyclic-di-GMP): do not inhibit | effect on acetylcholine-induced activation (phosphorylation) of p44/42 MAPK ([4]; listed as cyclic-di-GMP): do not inhibit | apoptosis of H508 cells by microscopic examination [5]: not observed by microscopic examination | lethality (CD1 mice): non-lethal

Source: patent publication US7709458B2, “Method for inhibiting cancer cell proliferation or increasing cancer cell apoptosis” (priority 2004, dated 2010)
